The record followed here is patent publication US9295673B2, “Combination of mTOR inhibitors and P13-kinase inhibitors, and uses thereof” (Intellikine LLC, priority 2011, dated 2016).

One assay has as its target PI3K γ (Homo sapiens, UniProt P48736). Nature of the assay: PI 3-Kinase (human) HTRF assay, PI3K γ. For orientation: TR-FRET usually uses a lanthanide donor and a delayed reading to cut background.
A further assay has as its target PI3K δ (Homo sapiens, UniProt O00329). The experiment in a line: PI 3-Kinase (human) HTRF assay, PI3K δ. The conditions noted are these: read-out: PI3K δ IC50.
A further assay addresses PI3K α (Homo sapiens, UniProt P42336). The experiment in a line: PI 3-Kinase (human) HTRF assay, PI3K α.
Another assay addresses PI3K β (Homo sapiens, UniProt P42338). The experiment in a line: PI 3-Kinase (human) HTRF assay, PI3K β.

Read-outs that look alike come from different tables or passages of the source. Where only a bound is given, the exact number is not on record here.

PI3K γ, sequence (P48736 whole entry): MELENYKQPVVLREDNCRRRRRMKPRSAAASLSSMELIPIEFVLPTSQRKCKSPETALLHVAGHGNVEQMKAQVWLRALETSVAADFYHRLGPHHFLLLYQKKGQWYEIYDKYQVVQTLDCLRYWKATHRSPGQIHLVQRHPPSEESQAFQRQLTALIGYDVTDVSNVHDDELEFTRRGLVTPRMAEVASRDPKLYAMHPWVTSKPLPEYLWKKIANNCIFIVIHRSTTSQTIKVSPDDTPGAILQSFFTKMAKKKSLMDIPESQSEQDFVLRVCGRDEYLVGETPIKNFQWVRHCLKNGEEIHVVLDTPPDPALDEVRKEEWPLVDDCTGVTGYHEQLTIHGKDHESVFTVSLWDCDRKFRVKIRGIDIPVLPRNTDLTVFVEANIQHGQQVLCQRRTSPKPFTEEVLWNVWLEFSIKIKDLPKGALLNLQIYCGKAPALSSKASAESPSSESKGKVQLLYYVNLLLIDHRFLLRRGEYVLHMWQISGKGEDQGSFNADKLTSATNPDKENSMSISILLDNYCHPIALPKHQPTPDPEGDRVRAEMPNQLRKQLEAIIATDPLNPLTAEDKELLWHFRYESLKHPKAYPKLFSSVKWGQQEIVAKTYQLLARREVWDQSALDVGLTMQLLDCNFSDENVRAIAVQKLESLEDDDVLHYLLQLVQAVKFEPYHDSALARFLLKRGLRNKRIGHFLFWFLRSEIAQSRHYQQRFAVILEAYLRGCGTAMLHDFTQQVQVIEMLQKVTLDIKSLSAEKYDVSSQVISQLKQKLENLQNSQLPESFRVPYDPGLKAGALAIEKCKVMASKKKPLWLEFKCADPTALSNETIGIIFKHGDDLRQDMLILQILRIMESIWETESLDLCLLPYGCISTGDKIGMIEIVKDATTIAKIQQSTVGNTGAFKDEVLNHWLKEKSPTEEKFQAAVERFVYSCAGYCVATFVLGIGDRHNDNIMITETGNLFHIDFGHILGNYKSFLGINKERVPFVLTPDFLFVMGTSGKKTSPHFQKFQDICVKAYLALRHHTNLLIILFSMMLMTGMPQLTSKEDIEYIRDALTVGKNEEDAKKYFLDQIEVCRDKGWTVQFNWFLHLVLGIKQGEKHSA
PI3K β, sequence (P42338 whole entry): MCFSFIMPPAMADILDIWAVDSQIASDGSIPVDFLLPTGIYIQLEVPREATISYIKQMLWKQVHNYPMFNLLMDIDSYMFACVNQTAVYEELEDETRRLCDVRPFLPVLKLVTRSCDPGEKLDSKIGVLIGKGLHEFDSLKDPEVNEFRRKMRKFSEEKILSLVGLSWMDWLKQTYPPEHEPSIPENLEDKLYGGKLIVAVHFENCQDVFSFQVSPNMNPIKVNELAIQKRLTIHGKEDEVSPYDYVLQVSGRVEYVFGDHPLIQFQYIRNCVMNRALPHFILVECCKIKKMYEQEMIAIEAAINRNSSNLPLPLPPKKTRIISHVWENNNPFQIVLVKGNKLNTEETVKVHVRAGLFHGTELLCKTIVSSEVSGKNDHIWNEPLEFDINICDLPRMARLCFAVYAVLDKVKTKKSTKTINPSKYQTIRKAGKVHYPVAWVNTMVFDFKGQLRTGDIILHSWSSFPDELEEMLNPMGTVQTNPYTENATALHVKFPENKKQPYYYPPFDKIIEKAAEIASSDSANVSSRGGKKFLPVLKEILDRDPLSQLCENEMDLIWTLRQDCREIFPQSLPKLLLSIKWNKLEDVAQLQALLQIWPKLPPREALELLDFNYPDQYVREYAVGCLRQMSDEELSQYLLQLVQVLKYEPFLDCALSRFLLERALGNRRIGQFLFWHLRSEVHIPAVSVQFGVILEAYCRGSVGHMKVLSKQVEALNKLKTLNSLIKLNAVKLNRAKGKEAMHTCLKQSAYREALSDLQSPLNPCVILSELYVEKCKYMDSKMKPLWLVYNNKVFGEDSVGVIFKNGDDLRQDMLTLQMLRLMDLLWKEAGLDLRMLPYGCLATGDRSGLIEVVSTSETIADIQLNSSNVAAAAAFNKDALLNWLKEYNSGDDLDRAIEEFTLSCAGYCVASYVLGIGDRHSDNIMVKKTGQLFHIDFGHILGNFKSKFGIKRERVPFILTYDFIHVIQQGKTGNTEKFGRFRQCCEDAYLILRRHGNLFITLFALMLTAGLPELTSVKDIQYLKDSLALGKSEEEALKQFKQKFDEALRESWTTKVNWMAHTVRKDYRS
PI3K β, sequence (P27986 whole entry partner): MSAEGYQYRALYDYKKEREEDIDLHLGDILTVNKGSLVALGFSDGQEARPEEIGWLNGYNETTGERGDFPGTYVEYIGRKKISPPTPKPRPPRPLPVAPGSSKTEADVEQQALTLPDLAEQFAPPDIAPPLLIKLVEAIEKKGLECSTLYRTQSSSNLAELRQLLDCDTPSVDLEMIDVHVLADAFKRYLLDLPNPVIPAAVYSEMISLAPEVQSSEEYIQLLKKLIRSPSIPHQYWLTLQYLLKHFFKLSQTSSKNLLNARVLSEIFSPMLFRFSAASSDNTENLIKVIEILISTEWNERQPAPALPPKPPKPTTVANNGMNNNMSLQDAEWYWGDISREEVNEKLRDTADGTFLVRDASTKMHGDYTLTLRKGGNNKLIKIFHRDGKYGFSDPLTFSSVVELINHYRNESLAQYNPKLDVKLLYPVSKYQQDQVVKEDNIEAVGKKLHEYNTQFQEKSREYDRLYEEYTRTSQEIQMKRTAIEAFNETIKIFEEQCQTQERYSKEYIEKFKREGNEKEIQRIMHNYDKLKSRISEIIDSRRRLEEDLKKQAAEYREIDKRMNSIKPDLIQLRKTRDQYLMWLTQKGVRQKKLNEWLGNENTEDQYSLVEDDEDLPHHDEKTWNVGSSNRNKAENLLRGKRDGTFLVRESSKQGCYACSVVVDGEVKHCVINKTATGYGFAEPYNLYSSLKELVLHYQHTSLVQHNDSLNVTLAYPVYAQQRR
PI3K α, sequence (P42336 whole entry): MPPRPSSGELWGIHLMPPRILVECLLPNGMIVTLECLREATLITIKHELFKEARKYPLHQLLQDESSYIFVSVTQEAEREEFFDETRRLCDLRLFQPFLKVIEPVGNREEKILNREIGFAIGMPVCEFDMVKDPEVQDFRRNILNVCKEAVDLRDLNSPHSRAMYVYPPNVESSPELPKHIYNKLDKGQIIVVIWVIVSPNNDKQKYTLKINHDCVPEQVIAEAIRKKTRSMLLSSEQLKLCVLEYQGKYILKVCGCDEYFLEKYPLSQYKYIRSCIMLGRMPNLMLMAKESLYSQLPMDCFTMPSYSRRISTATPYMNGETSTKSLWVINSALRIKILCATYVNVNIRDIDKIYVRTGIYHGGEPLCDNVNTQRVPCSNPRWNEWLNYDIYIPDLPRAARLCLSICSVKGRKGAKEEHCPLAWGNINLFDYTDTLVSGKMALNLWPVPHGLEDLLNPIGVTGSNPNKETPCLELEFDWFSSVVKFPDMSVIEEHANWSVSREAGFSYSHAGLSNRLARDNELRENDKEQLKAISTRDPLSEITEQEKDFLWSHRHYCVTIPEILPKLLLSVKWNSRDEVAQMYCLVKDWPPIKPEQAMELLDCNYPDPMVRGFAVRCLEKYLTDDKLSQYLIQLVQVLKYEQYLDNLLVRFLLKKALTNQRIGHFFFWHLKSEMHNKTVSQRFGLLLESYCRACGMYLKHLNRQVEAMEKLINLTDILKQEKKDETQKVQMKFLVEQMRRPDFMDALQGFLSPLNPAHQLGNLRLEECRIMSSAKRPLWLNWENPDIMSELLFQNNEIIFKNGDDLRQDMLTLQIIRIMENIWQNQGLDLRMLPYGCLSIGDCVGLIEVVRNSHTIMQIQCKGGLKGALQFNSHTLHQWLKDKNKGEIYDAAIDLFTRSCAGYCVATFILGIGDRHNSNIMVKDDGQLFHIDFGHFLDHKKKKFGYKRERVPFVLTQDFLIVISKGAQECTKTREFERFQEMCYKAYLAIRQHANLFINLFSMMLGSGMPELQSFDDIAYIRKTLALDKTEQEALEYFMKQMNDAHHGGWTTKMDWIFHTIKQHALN
PI3K α, sequence (P27986 whole entry partner): as the sequence (P27986 whole entry partner) above
PI3K δ, sequence (O00329 whole entry): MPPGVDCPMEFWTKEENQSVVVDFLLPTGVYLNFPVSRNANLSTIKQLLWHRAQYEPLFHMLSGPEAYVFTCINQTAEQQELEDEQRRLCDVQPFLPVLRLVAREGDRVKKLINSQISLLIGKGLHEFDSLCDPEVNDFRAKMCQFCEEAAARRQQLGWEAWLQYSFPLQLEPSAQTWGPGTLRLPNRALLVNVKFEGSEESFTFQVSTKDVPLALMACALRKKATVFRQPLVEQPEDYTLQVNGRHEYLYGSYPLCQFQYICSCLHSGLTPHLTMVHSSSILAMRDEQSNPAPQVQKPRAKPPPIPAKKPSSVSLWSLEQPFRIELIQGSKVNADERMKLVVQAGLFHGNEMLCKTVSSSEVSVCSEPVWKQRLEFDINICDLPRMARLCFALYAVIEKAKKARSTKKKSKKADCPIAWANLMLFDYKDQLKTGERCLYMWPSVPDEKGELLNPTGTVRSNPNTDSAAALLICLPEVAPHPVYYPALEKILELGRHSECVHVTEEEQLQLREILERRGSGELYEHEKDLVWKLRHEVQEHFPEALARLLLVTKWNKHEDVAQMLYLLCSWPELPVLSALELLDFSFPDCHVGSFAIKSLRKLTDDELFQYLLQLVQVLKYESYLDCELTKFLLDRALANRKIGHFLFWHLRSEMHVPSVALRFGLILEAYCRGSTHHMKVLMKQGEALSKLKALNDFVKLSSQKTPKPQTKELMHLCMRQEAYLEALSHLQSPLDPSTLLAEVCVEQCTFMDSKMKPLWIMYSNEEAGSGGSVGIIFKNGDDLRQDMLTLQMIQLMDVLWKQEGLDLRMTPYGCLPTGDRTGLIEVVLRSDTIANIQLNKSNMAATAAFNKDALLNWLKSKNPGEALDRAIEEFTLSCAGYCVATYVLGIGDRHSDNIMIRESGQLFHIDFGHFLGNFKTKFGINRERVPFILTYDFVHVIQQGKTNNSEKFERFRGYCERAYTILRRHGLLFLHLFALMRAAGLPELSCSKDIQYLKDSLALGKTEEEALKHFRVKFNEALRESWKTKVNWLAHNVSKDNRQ
PI3K δ, sequence (P27986 whole entry partner): as the sequence (P27986 whole entry partner) above
Procedure for PI3K α: (§1) An exemplary system is PI 3-Kinase (human) HTRF™ Assay from Upstate. […] Briefly, the assay is a time resolved FRET assay that indirectly measures PIP3 product formed by the activity of a PI3-K. The kinase reaction is performed in a microtitre plate (e.g., a 384 well microtitre plate). The total reaction volume is approximately 20 ul per well. In the first step, each well receives 2 ul of test compound in 20% dimethylsulphoxide resulting in a 2% DMSO final concentration. […] The plate is sealed and incubated for 15 minutes at room temperature. […] The plate is sealed and incubated for 1 hour at room temperature. The reaction is stopped by adding 5 ul of Stop Solution per well and then 5 ul of Detection Mix is added per well. The plate is sealed, incubated for 1 hour at room temperature, and then read on an appropriate plate reader. Data is analyzed and IC50s are generated using GraphPad Prism 5.
Procedure for PI3K γ: as §1

What is called IC50 is the concentration needed to halve the response being measured. Turning to `Nc1nc2cc(-c3ccc4ncc(N5CC(N6CCOCC6)C5)nc4n3)ccc2o1` [Compound 556], the IC50 at PI3K γ (read-out: PI3K γ IC50, Table 4) is under 10 µM; at PI3K δ it was under 10 µM.

On to `C[C@H]1CN(C2CN(c3cnc4ccc(-c5ccc6oc(N)nc6c5)nc4n3)C2)CCN1` [Compound 561], for which the IC50 at PI3K γ (read-out: PI3K γ IC50, Table 4) is under 10 µM; at PI3K δ (Table 4) it was under 10 µM.

`C[C@@H]1CN(C2CN(c3cnc4ccc(-c5ccc6oc(N)nc6c5)nc4n3)C2)CCN1C` [Compound 576]: the half-inhibitory concentration (IC50) on PI3K γ (read-out: PI3K γ IC50, Table 4) was under 10 µM; on PI3K δ (Table 4), under 10 µM.

Take `Nc1nc2cc(-c3ccc4ncc(N5CCNC(=O)C5)nc4n3)ccc2o1` [Compound 580]: the results for the IC50 at PI3K α, at PI3K β and against PI3K γ were under 0.1 µM, under 1 µM and under 0.1 µM, respectively.

Take `C[C@@H](N)C(=O)N1CCN(c2cnc3ccc(-c4ccc5oc(N)nc5c4)nc3n2)CC1` [Compound 582]: the IC50 is under 10 µM on PI3K β (read-out: PI3K β IC50, Table 4) and under 10 µM at PI3K δ.

On to `NCC(=O)N1CCN(c2cnc3ccc(-c4ccc5oc(N)nc5c4)nc3n2)CC1` [Compound 584], for which the IC50 at PI3K β (read-out: PI3K β IC50, Table 4) is under 10 µM; at PI3K δ (Table 4), under 10 µM.

In the case of `Nc1nc2cc(-c3ccc4ncc(N5CC(N6CCN(CC7CC7)CC6)C5)nc4n3)ccc2o1` [Compound 586], the concentration for half-maximal inhibition (IC50) on PI3K β (read-out: PI3K β IC50, Table 4) was under 10 µM; at PI3K γ (read-out: PI3K γ IC50, Table 4), under 10 µM; on PI3K δ (Table 4) it was under 10 µM.

Take `CC(C)(N)C(=O)N1CCN(c2cnc3ccc(-c4ccc5oc(N)nc5c4)nc3n2)CC1` [Compound 591]: the IC50 is under 10 µM on PI3K β (read-out: PI3K β IC50, Table 4); under 10 µM on PI3K γ (read-out: PI3K γ IC50, Table 4); under 10 µM at PI3K δ.

For the compound `Nc1nc2cc(-c3ccc4ncc(N5CC(N6CCN(CCO)CC6)C5)nc4n3)ccc2o1` [Compound 597], the half-inhibitory concentration (IC50) at PI3K β (read-out: PI3K β IC50, Table 4) is under 10 µM; at PI3K γ (read-out: PI3K γ IC50, Table 4), under 10 µM; at PI3K δ (Table 4) it was under 10 µM.

On to `C[C@@H]1COCCN1C1CN(c2cnc3ccc(-c4ccc5oc(N)nc5c4)nc3n2)C1` [Compound 600], for which the half-maximal inhibitory concentration (IC50) was under 10 µM at PI3K α (read-out: PI3K α IC50, Table 4) and under 10 µM on PI3K γ (read-out: PI3K γ IC50, Table 4).

On to `Cc1nccn1C1CN(c2cnc3ccc(-c4ccc5oc(N)nc5c4)nc3n2)C1` [Compound 601], for which the half-maximal inhibitory concentration (IC50) is under 10 µM at PI3K β (read-out: PI3K β IC50, Table 4); under 10 µM on PI3K γ (read-out: PI3K γ IC50, Table 4); under 10 µM at PI3K δ (Table 4).

For `Nc1nc2cc(-c3ccc4ncc(N5CC(N6CCOCC6)C5)cc4n3)ccc2o1` [Compound 604], the 50% inhibitory concentration (IC50) on PI3K β (read-out: PI3K β IC50, Table 4) was under 10 µM; at PI3K δ, under 10 µM.

As to `C[C@H]1CN(C2CN(c3cnc4ccc(-c5ccc6oc(N)nc6c5)nc4c3)C2)CCN1` [Compound 605], the IC50 is under 10 µM on PI3K β (read-out: PI3K β IC50, Table 4) and under 10 µM at PI3K γ (read-out: PI3K γ IC50, Table 4).

With `Nc1nc2cc(-c3ccc4ncc(N5CC(N6CCN(CC7CC7)CC6)C5)cc4n3)ccc2o1` [Compound 611], the concentration for half-maximal inhibition (IC50) at PI3K β (read-out: PI3K β IC50, Table 4) was under 10 µM; at PI3K γ (read-out: PI3K γ IC50, Table 4), under 10 µM.

On to `C[C@H]1COCCN1C1CN(c2cnc3ccc(-c4ccc5oc(N)nc5c4)nc3n2)C1` [Compound 612], for which the IC50 was under 10 µM on PI3K γ (read-out: PI3K γ IC50, Table 4) and under 10 µM at PI3K δ (Table 4).

Consider `Nc1nc2cc(-c3ccc4ncc(N5CCC(O)CC5)cc4n3)ccc2o1` [Compound 613], for which the IC50 on PI3K β (read-out: PI3K β IC50, Table 4) is under 10 µM; at PI3K δ (Table 4) it was under 10 µM.

For the compound `C[C@H]1COCCN1C1CN(c2cnc3ccc(-c4ccc5oc(N)nc5c4)nc3c2)C1` [Compound 619], the IC50 on PI3K γ (read-out: PI3K γ IC50, Table 4) was under 10 µM.

`Nc1nc2cc(-c3ccc4ncc(N5CC(N6CCN(C7CC7)CC6)C5)nc4n3)ccc2o1` [Compound 620]: the IC50 is under 10 µM at PI3K β (read-out: PI3K β IC50, Table 4); under 10 µM on PI3K γ (read-out: PI3K γ IC50, Table 4); under 10 µM at PI3K δ.

As to `Nc1nc2cc(-c3ccc4ncc(N5CC(N6CCN(C7CC7)CC6)C5)cc4n3)ccc2o1` [Compound 621], the 50% inhibitory concentration (IC50) on PI3K β (read-out: PI3K β IC50, Table 4) was under 10 µM; at PI3K δ (Table 4), under 10 µM.

Regarding `Nc1nc2cc(-c3cnc4ccc(N5CCOCC5)nc4c3)ccc2o1` [Compound 624], the IC50 on PI3K α (read-out: PI3K α IC50, Table 4) is under 10 µM; at PI3K γ (read-out: PI3K γ IC50, Table 4) it was under 10 µM.

Take `CCN1CCN(C2CN(c3cnc4ccc(-c5ccc6oc(N)nc6c5)nc4c3)C2)CC1` [Compound 626]: the IC50 on PI3K γ (read-out: PI3K γ IC50, Table 4) was under 10 µM.

Regarding `CCN1CCN(C2CN(c3cnc4ccc(-c5ccc6oc(N)nc6c5)nc4n3)C2)CC1` [Compound 627], the IC50 at PI3K β (read-out: PI3K β IC50, Table 4) was under 10 µM; on PI3K γ (read-out: PI3K γ IC50, Table 4), under 10 µM; at PI3K δ (Table 4), under 10 µM.

As for `CC(C)N1CCN(C2CN(c3cnc4ccc(-c5ccc6oc(N)nc6c5)nc4n3)C2)CC1` [Compound 628], the half-maximal inhibitory concentration (IC50) at PI3K α (read-out: PI3K α IC50, Table 4) was under 10 µM.

Consider `CN1CCN(c2ccc3ncc(-c4ccc5oc(N)nc5c4)cc3n2)CC1` [Compound 631], for which the IC50 at PI3K α (read-out: PI3K α IC50, Table 4) is under 10 µM; on PI3K β (read-out: PI3K β IC50, Table 4), under 10 µM.

As to `CC(C)(N)C(=O)N1CCN(c2ccc3ncc(-c4ccc5oc(N)nc5c4)cc3n2)CC1` [Compound 633], at PI3K α (read-out: PI3K α IC50, Table 4), the IC50 is under 10 µM.
